Compound	melting point
CCCCCCC1(c2ccc3c(c2)C(C)(C)CCC3(C)C)COc2cc(C(=O)O)ccc21 (centres unmarked)	137 °C
CC1(C)CCC(C)(C)c2cc(C3(CC(=O)O)COc4cc(C(=O)O)ccc43)ccc21 (centres unmarked)	268 °C

Reference: US20040162339A1, “Heterocyclic biaryl compounds, pharmaceutical and cosmetic compositions containing them and uses thereof” (priority 1996, published 2004)
